Experimental findings from PubChem BioAssay AID1259411 (Chemical Carcinogenesis Research Information System (CCRIS), 2018) are described below.

Active and inactive are the calls of the source. How the calls were made is not given here.

The test system of this data set is rodent carcinogenicity bioassays, tumor incidence. Kind of data set: CCRIS carcinogenicity studies. In short, it runs like this:
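Archive of carcinogenicity, mutagenicity, tumor promotion and tumor inhibition results drawn from journals, NCI reports and other sources, expert-reviewed; covers 1985-2011 and is no longer updated.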

As for `CN(C=O)N=O`, the carcinogen call was “inactive; negative” (Species: HAMSTER, Strain/Sex: SYRIAN/FEMALE, Route: GAVAGE, Dose: 0, 0.6 MG IN CORN OIL 1/WK FOR 15 WK (STUDY DURATION: 30 WK)); “active; positive” (Species: HAMSTER, Strain/Sex: SYRIAN/MALE, Route: GAVAGE, Dose: 0, 0.6 MG IN CORN OIL 1/WK FOR 15 WK (STUDY DURATION: 35 WK), Tumor Site: Type of Lesion: FORESTOMACH: TUMOR); “active; positive” (Species: RAT, Strain/Sex: F344/FEMALE, Route: GAVAGE, Dose: 0, 0.6 MG IN CORN OIL 2/WK FOR 20 WK (STUDY DURATION: 40 WK), Tumor Site: Type of Lesion: FORESTOMACH: TUMOR, ESOPHAGUS: TUMOR); “active; positive” (Species: RAT, Strain/Sex: F344/MALE, Route: GAVAGE, Dose: 0, 0.6 MG IN CORN OIL 2/WK FOR 20 WK (STUDY DURATION: 40 WK), Tumor Site: Type of Lesion: FORESTOMACH: TUMOR).

For the molecule `O.O.O.O.O.[Cd+2].[Cd+2].[Cl-].[Cl-].[Cl-].[Cl-]`, the carcinogen call (Species: HAMSTER, Strain/Sex: SYRIAN/FEMALE, Route: SUBCUTANEOUS, Dose: 0, 30, 40, 50 UMOL/KG ONCE ON THE FOURTH DAY OF THE ESTROUS CYCLE (STUDY DURATION: 78 WK), Dose: 0, 30, 40, 50 UMOL/KG ONCE ON THE FOURTH DAY OF THE ESTROUS CYCLE (STUDY DURATION: 78 WK)) is “inactive; negative”; the carcinogen call (Species: HAMSTER, Strain/Sex: SYRIAN/MALE, Route: SUBCUTANEOUS, Dose: 0, 20 UMOL/KG ONCE (STUDY DURATION: 104 WK), Tumor Site: Type of Lesion: ADRENAL GLAND: TUMOR) is “active; positive”; the carcinogen call (Species: MOUSE, Strain/Sex: C57/MALE, Route: SUBCUTANEOUS, Dose: 0, 20 UMOL/KG ONCE (STUDY DURATION: 104 WK)) is “inactive; negative”; the carcinogen call (Species: MOUSE, Strain/Sex: NFS/MALE, Route: SUBCUTANEOUS, Dose: 0, 20 UMOL/KG ONCE (STUDY DURATION: 104 WK), Tumor Site: Type of Lesion: LYMPHOID TISSUE: LYMPHOMA) is “active; positive”; the carcinogen call (Species: RAT, Strain/Sex: WISTAR/FEMALE, Route: ORAL, Dose: 0, 1, 3, 10, 50 PPM IN DIET FOR 104 WK (STUDY DURATION: 2 YR), Dose: 0, 1, 3, 10, 50 PPM IN DIET FOR 104 WK (STUDY DURATION: 2 YR)) was “inactive; negative”; the carcinogen call (Species: RAT, Strain/Sex: WISTAR/MALE, Route: ORAL, Dose: 0, 1, 3, 10, 50 PPM IN DIET FOR 104 WK (STUDY DURATION: 2 YR), Dose: 0, 1, 3, 10, 50 PPM IN DIET FOR 104 WK (STUDY DURATION: 2 YR)) is “inactive; negative”. Also, the carcinogen call reads like this: (Species: RAT, Strain/Sex: WISTAR/MALE, Route: ORAL, Dose: 0, 25, 50, 100, 200 PPM IN DIET FOR 77 WK TO RATS MAINTAINED ON ZINC ADEQUATE (60 PPM) DIET (STUDY DURATION: 79 WK), Dose: 0, 25, 50, 100, 200 PPM IN DIET FOR 77 WK TO RATS MAINTAINED ON ZINC ADEQUATE (60 PPM) DIET (STUDY DURATION: 79 WK), Tumor Site: Type of Lesion: HEMATOPOIETIC SYSTEM: LEUKEMIA, TESTIS: TUMOR) “active; positive”; (Species: RAT, Strain/Sex: WISTAR/MALE, Route: ORAL, Dose: 0, 25, 50, 100, 200 PPM IN DIET FOR 77 WK TO RATS MAINTAINED ON ZINC DEFICIENT (7 PPM) DIET (STUDY DURATION: 79 WK), Dose: 0, 25, 50, 100, 200 PPM IN DIET FOR 77 WK TO RATS MAINTAINED ON ZINC DEFICIENT (7 PPM) DIET (STUDY DURATION: 79 WK), Tumor Site: Type of Lesion: HEMATOPOIETIC SYSTEM: LEUKEMIA) “active; positive”; (Species: RAT, Strain/Sex: WISTAR/MALE, Route: SUBCUTANEOUS, Dose: 0, 5, 10, 30 UMOL ONCE ADMINISTERED TO RATS FED DIETS ADEQUATE (60 PPM) IN ZINC (STUDY DURATION: 92 WK), Dose: 0, 5, 10, 30 UMOL ONCE ADMINISTERED TO RATS FED DIETS ADEQUATE (60 PPM) IN ZINC (STUDY DURATION: 92 WK), Tumor Site: Type of Lesion: TESTES: ADENOMA) “active; positive”; (Species: RAT, Strain/Sex: WISTAR/MALE, Route: SUBCUTANEOUS, Dose: 0, 5, 10, 30 UMOL ONCE ADMINISTERED TO RATS FED DIETS DEFICIENT (7 PPM) IN ZINC (STUDY DURATION: 92 WK), Dose: 0, 5, 10, 30 UMOL ONCE ADMINISTERED TO RATS FED DIETS DEFICIENT (7 PPM) IN ZINC (STUDY DURATION: 92 WK), Tumor Site: Type of Lesion: TESTES: ADENOMA, INJECTION SITE: SARCOMA) “active; positive”.

For `Cc1cccc(OCC(O)CNC(C)(C)C)c1[N+](=O)[O-]` (stereo unspecified), the carcinogen call (Species: RAT, Strain/Sex: WISTAR/FEMALE, Route: ORAL, Dose: 0, 25, 50, 100 MG/KG DAILY BY GAVAGE FOR 3 OR 6 MO, Dose: 0, 25, 50, 100 MG/KG DAILY BY GAVAGE FOR 3 OR 6 MO, Tumor Site: Type of Lesion: LIVER: NEOPLASTIC NODULE, HEPATOCELLULAR CARCINOMA) was “active; positive”.

With `CNc1nncc2ccccc12`, the carcinogen call runs as follows: (Species: MOUSE, Strain/Sex: SWISS/MALE,FEMALE, Route: ORAL, Dose: 0.125% IN WATER, Tumor Site: Type of Lesion: LUNG) “active; positive”; (Species: RAT, Strain/Sex: SPRAGUE-DAWLEY/MALE, Route: ORAL, Dose: 0, 0.035% IN DIET FOR 68-87 WK (STUDY DURATION: 87 WK)) “inactive; negative”; (Species: RAT, Strain/Sex: SPRAGUE-DAWLEY/MALE, Route: SUBCUTANEOUS, Dose: 0, 16.7 MG/KG 1/WK FOR 87 WK (STUDY DURATION: 87 WK)) “inactive; negative”; (Species: RAT, Strain/Sex: SPRAGUE-DAWLEY/MALE, Route: SUBCUTANEOUS, Dose: 0, 16.7 MG/KG 1/WK FOR 87 WK ADMINISTERED TO PARTIALLY HEPATECTOMIZED RATS (STUDY DURATION: 87 WK)) “inactive; negative”.

Regarding `O=C1c2ccccc2C(=O)c2ccccc21`, the carcinogen call is, setting by setting: (Species: MOUSE, Strain/Sex: B6C3F1/MALE, Route: DIET, Dose: 0, 833, 2500, 7500 PPM FOR 2 YR (STUDY DURATION: 2 YRS), Dose: 0, 833, 2500, 7500 PPM FOR 2 YR (STUDY DURATION: 2 YRS), Tumor Site: Type of Lesion: LIVER: HEPATOCELLULAR ADENOMA, CARCINOMA OR HEPATOBLASTOMA) “active; positive”; (Species: RAT, Strain/Sex: F344/N/MALE, Route: DIET, Dose: 0, 469, 938, 1875, 3750 PPM FOR 2 YRS (STUDY DURATION: 2YRS), Dose: 0, 469, 938, 1875, 3750 PPM FOR 2 YRS (STUDY DURATION: 2YRS), Tumor Site: Type of Lesion: KIDNEY: RENAL TUBULE ADENOMA OR CARCINOMA, LIVER: HEPATOCELLULAR ADENOMA) “active; positive”; (Species: RAT, Strain/Sex: F344/N/MALE, Route: DIET, Dose: 0, 469, 938, 1875, 3750 PPM FOR 2 YRS (STUDY DURATION: 2YRS), Dose: 0, 469, 938, 1875, 3750 PPM FOR 2 YRS (STUDY DURATION: 2YRS), Tumor Site: Type of Lesion: KIDNEY: RENAL TUBULE ADENOMA, BLADDER: PAPILLOMA) “active; positive; no true dose response, p values = 0.01 in these 2 cases; all others no”.

Consider `CN(N=O)C(=O)c1c(N(C)N=O)ncn1C`, for which, for the setting “Species: RAT, Strain/Sex: BD-IX/MALE, FEMALE, Route: GAVAGE, Dose: 0, 6, 60 MG/KG 2/WK AFTER 2 WK HIGH DOSE REDUCED TO 30 MG/KG FOR DURATION OF STUDY (STUDY DURATION: LIFETIME), Dose: 0, 6, 60 MG/KG 2/WK AFTER 2 WK HIGH DOSE REDUCED TO 30 MG/KG FOR DURATION OF STUDY (STUDY DURATION: LIFETIME), Tumor Site: Type of Lesion: FORESTOMACH: TUMOR”, the carcinogen call was “active; positive”.

`Nc1ccc(N=Nc2ccc(-c3ccc(N=Nc4c(S(=O)(=O)O)cc5c(c4N)C(=O)/C(=N/Nc4ccccc4)C(S(=O)(=O)O)=C5)cc3)cc2)c(N)c1`: the carcinogen call by setting is: (Species: MOUSE, Strain/Sex: ICR/MALE,FEMALE, Route: ORAL, Dose: 0, 0.3% IN DRINKING WATER FOR LIFE (STUDY DURATION: 50-60 WK), Tumor Site: Type of Lesion: LIVER: HEPATOCELLULAR CARCINOMA, MAMMARY GLAND: ADENOCARCINOMA OR SQUAMOUS CELL CARCINOMA) “active; positive”; (Species: RAT, Strain/Sex: F344/FEMALE, Route: ORAL, Dose: 0, 190, 375, 750, 1500, 3000 PPM IN DIET FOR 91 D (STUDY DURATION:93 D), Dose: 0, 190, 375, 750, 1500, 3000 PPM IN DIET FOR 91 D (STUDY DURATION:93 D), Tumor Site: Type of Lesion: LIVER: NEOPLASTIC NODULE, FOCI OF CELLULAR ALTERATION OR BASOPHILIC FOCI) “active; positive”; (Species: RAT, Strain/Sex: F344/MALE, Route: ORAL, Dose: 0, 190, 375, 750, 1500, 3000 PPM IN DIET FOR 91 D (STUDY DURATION: 93 D), Dose: 0, 190, 375, 750, 1500, 3000 PPM IN DIET FOR 91 D (STUDY DURATION: 93 D), Tumor Site: Type of Lesion: LIVER: HEPATOCELLULAR CARCINOMA OR NEOPLASTIC NODULE, FOCI OF CELLULAR ALTERATION OR BASOPHILIC FOCI) “active; positive”.
